Measurements as given in article doi:10.1101/2025.03.24.644576v1 (biorxiv, 2025).

Tests used:
[1] = target: T1, AmRDL receptor (Apis mellifera, UniProt A0A8U0Y4W2); assay: two-electrode voltage clamp, Xenopus oocytes; type: cell-based
T1 sequence (A0A8U0Y4W2 19-476): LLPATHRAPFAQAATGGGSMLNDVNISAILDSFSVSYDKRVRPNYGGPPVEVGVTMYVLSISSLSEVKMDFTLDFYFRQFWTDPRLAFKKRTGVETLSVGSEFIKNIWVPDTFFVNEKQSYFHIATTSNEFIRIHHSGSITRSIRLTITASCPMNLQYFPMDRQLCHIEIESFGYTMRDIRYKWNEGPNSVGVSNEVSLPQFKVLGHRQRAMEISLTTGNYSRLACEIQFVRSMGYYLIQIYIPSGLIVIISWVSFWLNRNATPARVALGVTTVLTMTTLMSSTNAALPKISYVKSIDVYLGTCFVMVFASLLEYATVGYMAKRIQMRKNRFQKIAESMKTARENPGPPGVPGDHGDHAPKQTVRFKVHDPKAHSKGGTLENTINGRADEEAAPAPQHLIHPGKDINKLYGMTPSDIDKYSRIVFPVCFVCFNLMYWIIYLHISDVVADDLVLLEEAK

[2] = target: T2, AmRDL receptor (Apis mellifera, UniProt A0A8U0Y4W2, F191A); assay: two-electrode voltage clamp, Xenopus oocytes; type: cell-based
T2 sequence (A0A8U0Y4W2 19-476 F191A): T1 sequence (A0A8U0Y4W2 19-476)

Q: `NCCCC(=O)O` [GABA] was tested. Which EC50 [1] did it give?
A: 10 µM

Q: And the EC50 [2]?
A: 1000 µM
